Measured values as given in patent US9676820B2, “Method for inhibiting proliferation of high LIX1L-expressing tumor cell, and tumor cell proliferation-inhibiting peptide” (National University Corporation Hamamatsu University School …, priority 2013, dated 2017).

How the values were obtained:
MKN45 cell strains = assay: Cancer mouse model transplanted with MKN45 cell strain; assay type: in vivo; conditions: nude mice with MKN45 transplant; 100 μL of 30 μM peptide solution 4 times; vs spare mice given nothing
Protocol: Rearing of 10 nude male mice (BALB/cAJcl-nu/nu, purchased from CLEA Japan, Inc.) at the age of 7 weeks was started, and MKN45 cell strains separately cultured were transplanted into the mice by being subcutaneously injected thereinto on day 31. The day on which the transplantation was performed was set as day 0, the mice were divided into two groups (peptide 1-administered group and control peptide-administered group) of 5 mice on day 14 of the transplantation, 4 mice were selected among the 5 mice from each group, and the peptide 1 or the control peptide was administered. The remaining one mouse was set as a spare. In the peptide 1-administered group, 100 μL of a 30 μM peptide 1 solution (solution prepared by adding a methylcellulose solution to the solution after the peptide 1 was dissolved in PBS (−)) was subcutaneously injected into a tumor site (site into which the MKN45 cell strain was injected) 4 times every 3 days. In the control peptide-administered group, 100 μL of a 30 μM control peptide solution (solution prepared by adding a methylcellulose solution to the solution after the control peptide was dissolved in PBS (−)) was subcutaneously injected into a tumor site 4 times on the same days as those in the peptide 1-administered group.
The results in which the points of time (days) at which a peptide solution was administered to each mouse and the volume (mm^3) of a tumor site were temporally measured are shown in FIG. 21. For the volume of the tumor site, the width and the length of the tumor site determined from the appearance of the mouse were measured and calculated using the following formula. [Volume(mm^3) of Tumor Site]=([Width(mm) of Tumor Site]^2×[Length(mm) of Tumor Site])/2
The “width of tumor site” referred herein means a maximum width of a portion in which the skin has risen due to the tumor and the “length of tumor site” means a maximum length of a portion in which the skin has risen due to the tumor.

RPMI8226 strain = assay: MTT assay, RPMI8226 strain; assay type: cell-based; conditions: peptide 0 μM to 100 μM, 72 hours
Protocol: (§1) Specifically, first, cells plated in a 96-well microplate such that the density thereof became 5×10^3 cells/well were cultured for one night in a culture solution having the same composition as those in the reference examples. Thereafter, the culture solution was exchanged with 100 μL of a culture solution of which the concentration of peptides is 0 μM to 100 μM for culturing for 72 hours. After the culturing, an MTT-containing PBS solution was added to the culture solution, and the mixture was incubated for 4 hours. Then, formazan which was generated by putting 100 μL of isopropanol (containing 34 (v/v) % of hydrochloric acid) into each of the wells was dissolved. The absorbance of each of the wells of the microplate at 570 nm was measured using a microplate reader. As controls, culturing was performed in the same manner except that no peptide was added to the strains, an MTT assay was performed thereon, and the absorbance at 570 nm was measured (untreated).
(§2) Specifically, the cells were cultured for 72 hours similarly to Example 2 except that a peptide to be added to a cell strain was set to peptide 1, 3, or 4, or a control peptide, an MTT assay was performed thereon, and the absorbance at 570 nm was measured.

K562 strain = assay: MTT assay, K562 strain; assay type: cell-based; conditions: 72 hours; for absorbance at 570 nm (MTT assay), influence on cell proliferation: peptide 0 μM to 100 μM
Protocol: as §1, §2
(§3) In the method for measuring the viable cell counts, cells were cultured for 3 days similarly to Example 1 except that a 25 μM (10 μM for an HL-60 strain, a K562 strain, and a U937 strain) culture solution containing a control peptide or a peptide 1 was used, and the viable cell counts were measured. As a comparison, culturing was performed similarly to the above using a culture solution containing no peptide, and the viable cell counts were measured (untreated).
(§4) In addition, in the method for performing an MTT assay, cells were cultured for 72 hours similarly to Example 2 except that a peptide to be added to a strain was set to a control peptide or a peptide 1 at 25 μM (10 μM for an HL-60 strain, a K562 strain, and a U937 strain), an MTT assay was performed thereon, and the absorbance at 570 nm was measured. As a comparison, culturing was performed similarly to the above using a culture solution containing no peptide, and the MTT assay was performed thereon (untreated).
(§5) Specifically, the cells were cultured for 72 hours similarly to Example 2 except that a peptide to be added to a cell was set to a peptide 1, 2, 5, or 6, MTT assays were performed thereon, and the absorbance at 570 nm was measured. As a comparison, culturing was performed similarly to the above using a culture solution containing no peptide, and the MTT assay was performed thereon (untreated).
as §5, with “that peptides” for “that a peptide”, “to” for “to a”, “cell strains were” for “cell was”, “to peptides 7 to 14,” for “to a peptide 1, 2, 5, or 6,”
Specifically, the cells were cultured for 72 hours similarly to Example 2 except that a peptide to be added to a cell strain was set to a peptide 15 or 16, an MTT assay was performed thereon, and the absorbance at 570 nm was measured. As a comparison, culturing was performed similarly to the above using a culture solution containing no peptide, and the MTT assay was performed thereon (untreated).

U937 strain = assay: MTT assay, U937 strain; assay type: cell-based; conditions: peptide 0 μM to 100 μM, 72 hours
Protocol: as §1, §2, §3, §4

NUGC-4 strain = assay: MTT assay, NUGC-4 strain; assay type: cell-based; conditions: 72 hours, peptide concentrations up to 250 μM
Protocol: as §1, with “Thereafter, the culture solution was exchanged with 100 μL of a culture solution of which the concentration of peptides is 0 μM to 100 μM for culturing for 72 hours.” left out
as §3, §4, §5
(§6) Specifically, the cells were cultured for 72 hours similarly to Example 2 except that peptides to be added to cell strains were set to peptides 7 to 14, MTT assays were performed thereon, and the absorbance at 570 nm was measured. […]
(§7) Specifically, the cells were cultured for 72 hours similarly to Example 2 except that a peptide to be added to a cell strain was set to a peptide 15 or 16, an MTT assay was performed thereon, and the absorbance at 570 nm was measured. […]

293 FLG/LIX1L = assay: MTT assay, 293 FLG/LIX1L cells; assay type: cell-based; conditions: 72 hours, peptide concentrations up to 250 μM
Protocol: as §1, with “Thereafter, the culture solution was exchanged with 100 μL of a culture solution of which the concentration of peptides is 0 μM to 100 μM for culturing for 72 hours.” left out
as §3, §4, §5, §6, §7

293 FLG = assay: MTT assay, 293 FLG cells; assay type: cell-based; conditions: 72 hours, peptide concentrations up to 250 μM
Protocol: as §1, with “Thereafter, the culture solution was exchanged with 100 μL of a culture solution of which the concentration of peptides is 0 μM to 100 μM for culturing for 72 hours.” left out
as §3, §4, §5, §6, §7

MKN45 strain = assay: MTT assay, MKN45 strain; assay type: cell-based; conditions: 72 hours, peptide concentrations up to 250 μM
Protocol: as §1, with “Thereafter, the culture solution was exchanged with 100 μL of a culture solution of which the concentration of peptides is 0 μM to 100 μM for culturing for 72 hours.” left out
as §3, §4, §5, §6, §7

| Compound | absorbance at 570 nm (MTT assay), influence on cell proliferation (RPMI8226 strain) | absorbance at 570 nm (MTT assay), influence on cell proliferation (K562 strain) | absorbance at 570 nm (MTT assay), cell proliferation (U937 strain) | further results |
| --- | --- | --- | --- | --- |
| N=C(N)NCCC[C@H](NC(=O)CNC(=O)[C@@H](N)Cc1ccc(O)cc1)C(=O)N[C@@H](CCCCN)C(=O)N[C@@H](CCCCN)C(=O)N[C@@H](CCCNC(=N)N)C(=O)N[C@@H](CCCNC(=N)N)C(=O)N[C@@H](CCC(N)=O)C(=O)N[C@@H](CCCNC(=N)N)C(=O)N[C@@H](CCCNC(=N)N)C(=O)N[C@@H](CCCNC(=N)N)C(=O)NCCCCCC(N)=O [control peptide, reference compound] |  |  |  | body weight (MKN45 cell strains): no particularly significant change |
| peptide 4: peptide in which the Y136-containing partial sequence consists of 30 amino acids (YGRKKRRQRRRXALVVYEMVPSNSPPYVCYVTLPGGSCFGSF; peptide 4) | not inhibited | inhibited | inhibited |  |
| peptide 3: peptide in which the Y136-containing partial sequence consists of 20 amino acids (YGRKKRRQRRRXEMVPSNSPPYVCYVTLPGGS; peptide 3) | not inhibited | inhibited | inhibited |  |
| YGRKKRRQRRR-X-HTQGYGRVNV-NH2 (YGRKKRRQRRRXHTQGYGRVNV; ε-aminocaproic acid linker; C-terminal amide; peptide 6) |  |  |  | cell proliferation (MTT assay, absorbance at 570 nm) (NUGC-4 strain): not inhibited; cell proliferation (MTT assay, absorbance at 570 nm) (293 FLG/LIX1L): not inhibited; cell proliferation (MTT assay, absorbance at 570 nm) (293 FLG): not inhibited; cell proliferation (MTT assay, absorbance at 570 nm) (K562 strain; peptide concentrations up to 250 μM): not inhibited; cell proliferation (MTT assay, absorbance at 570 nm) (MKN45 strain): not inhibited |
